From publication PMC6743422, “Preclinical disposition of MGS0274 besylate, a prodrug of a potent group II metabotropic glutamate receptor agonist MGS0008 for the treatment of schizophrenia” (Pharmacology Research & Perspectives, 2019)
pIC50: −log10 of the molar value.

Target: CYP3A (Homo sapiens, UniProt P08684)
Experiment: CYP inhibition in human liver microsomes, CYP3A
Assay type: in vitro ADME
Conditions: probe testosterone (6β-hydroxytestosterone formation), human liver microsomes 0.1 mg/mL, metabolite 6β-Hydroxytestosterone
Method: The inhibition potential of MGS0008 (0.3‐100 µmol/L) and MGS0274 besylate (0.03‐10 µmol/L) on the activity of human cytochrome P450 (CYP) isoforms (CYP1A2, 2B6, 2C8, 2C9, 2C19, 2D6, and 3A) was investigated using probe substrates for each CYP isoform and human liver microsomes, of which the final protein concentration was set at 0.1 mg/mL (see Table S2). The assay was started by spiking the reaction mixture, which had been pre‐incubated at 37°C for 5 minutes, with NADP^+. After incubation for 5 to 10 minutes, the reaction was terminated by adding acetonitrile containing an internal standard for each probe substrate, and the resultant mixture was centrifuged. Aliquots of the supernatant were subjected to bioanalysis using LC‐MS/MS (see Table S1‐D).
The final protein concentration in the reaction mixture was set at 0.1 mg/mL. The values in parentheses represent the final concentrations of compounds added in each reaction mixture. […]

Sequence of CYP3A (P08684 2-503): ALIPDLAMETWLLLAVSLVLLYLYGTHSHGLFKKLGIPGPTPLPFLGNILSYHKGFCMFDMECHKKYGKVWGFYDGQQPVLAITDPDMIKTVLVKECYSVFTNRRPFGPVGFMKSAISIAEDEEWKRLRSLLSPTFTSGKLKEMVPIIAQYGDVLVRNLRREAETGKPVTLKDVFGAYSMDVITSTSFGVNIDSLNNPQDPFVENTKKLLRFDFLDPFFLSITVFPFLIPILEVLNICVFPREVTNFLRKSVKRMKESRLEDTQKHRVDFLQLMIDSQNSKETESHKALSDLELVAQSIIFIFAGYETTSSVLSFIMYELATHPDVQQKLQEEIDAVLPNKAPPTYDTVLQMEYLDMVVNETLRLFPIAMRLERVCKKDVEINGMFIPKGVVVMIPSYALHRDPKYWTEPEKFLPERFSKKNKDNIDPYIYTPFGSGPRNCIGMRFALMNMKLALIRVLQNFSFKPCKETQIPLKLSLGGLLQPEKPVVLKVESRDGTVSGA

N[C@]1(C(=O)O)[C@H]2[C@@H](C[C@@H]1F)[C@@H]2C(=O)O [MGS0008, (1S,2S,3S,5R,6S)‐2‐amino‐3‐fluorobicyclo[3.1.0]hexane‐2,6‐dicarboxylic acid] gave a pIC50 of less than 4.00.
